In ChEMBL document CHEMBL1133283, “Arylsulfonyl-N,N-diethyl-dithiocarbamates: a novel class of antitumor agents” (Bioorg Med Chem Lett, 2000):
pKi: −log10 of the molar value.

Experiments:
Carbonic anhydrase 2 = Carbonic anhydrase 2 (Homo sapiens, UniProt P00918); test: Binding affinity of compound against human Carbonic anhydrase II
A549 = test: In vitro growth inhibition of compound was determined against A549/ATCC cell lines of non-small cell lung cancer; type: functional; details: Homo sapiens
786-0 = test: In vitro growth inhibition of compound was determined against […] cell lines of Renal cancer; type: functional; details: Homo sapiens
BT-549 = test: In vitro growth inhibition of compound was determined against BT-549 cell lines of Breast cancer; type: functional; details: Homo sapiens
COLO 205 = test: In vitro growth inhibition of compound was determined against COLO-205 cell lines of colon cancer; type: functional; details: Homo sapiens
CCRF-CEM = test: In vitro growth inhibition of compound was determined against CCRF-CEM cell lines of Leukemia; type: functional; details: Homo sapiens
CAKI-1 = test: In vitro growth inhibition of compound was determined against CAKI-1 cell lines of Renal cancer; type: functional; details: Homo sapiens
DU-145 = test: In vitro growth inhibition of compound was determined against DU-145 cell lines of Prostate cancer; type: functional; details: Homo sapiens
HCT-15 = test: In vitro growth inhibition of compound was determined against HCT-15 cell lines of colon cancer; type: functional; details: Homo sapiens
HOP-92 = test: In vitro growth inhibition of compound was determined against HOP-92 cell lines of non-small cell lung cancer; type: functional; details: Homo sapiens
HL-60 = test: In vitro growth inhibition of compound was determined against HL-60(TB) cell lines of Leukemia; type: functional; details: Homo sapiens
HCT-116 = test: In vitro growth inhibition of compound was determined against HCT116 cell lines of colon cancer; type: functional; details: Homo sapiens
HCC 2998 = test: In vitro growth inhibition of compound was determined against HCC2998 cell lines of colon cancer; type: functional; details: Homo sapiens
Hs-578T = test: In vitro growth inhibition of compound was determined against Hs 578.T cell lines of Breast cancer; type: functional; details: Homo sapiens
IGROV-1 = test: In vitro growth inhibition of compound was determined against IGROVI cell lines of Ovarian cancer; type: functional; details: Homo sapiens
K562 = test: In vitro growth inhibition of compound was determined against K-562 cell lines of Leukemia; type: functional; details: Homo sapiens
KM12 = test: In vitro growth inhibition of compound was determined against KM12 cell lines of colon cancer; type: functional; details: Homo sapiens
MOLT-4 = test: In vitro growth inhibition of compound was determined against MOLT-4 cell lines of Leukemia; type: functional; details: Homo sapiens
LOX IMVI = test: In vitro growth inhibition of compound was determined against LOX IMVI cell lines of Melanoma; type: functional; details: Homo sapiens
MDA-MB-435 = test: In vitro growth inhibition of compound was determined against MDA-MB-435 cell lines of Breast cancer; type: functional; details: Homo sapiens
MDA-MB-231 = test: In vitro growth inhibition of compound was determined against MDA-MB-231/ATCC cell lines of Breast cancer; type: functional; details: Homo sapiens
MDA-N = test: In vitro growth inhibition of compound was determined against MDA-Ncell lines of Breast cancer; type: functional; details: Homo sapiens
M14 = test: In vitro growth inhibition of compound was determined against M14 cell lines of Melanoma; type: functional; details: Homo sapiens
Malme-3M = test: In vitro growth inhibition of compound was determined against MALME-3M cell lines of Melanoma; type: functional; details: Homo sapiens
MCF7 = test: In vitro growth inhibition of compound was determined against MCF-7 cell lines of Breast cancer; type: functional; details: Homo sapiens
NCI-H522 = test: In vitro growth inhibition of compound was determined against NCI-H522 cell lines of non-small cell lung cancer; type: functional; details: Homo sapiens
NCI-H226 = test: In vitro growth inhibition of compound was determined against NCI-H226 cell lines of non-small cell lung cancer; type: functional; details: Homo sapiens
NCI/ADR-RES = test: In vitro growth inhibition of compound was determined against NCI/ADR-RES cell lines of Breast cancer; type: functional; details: Homo sapiens
OVCAR-3 = test: In vitro growth inhibition of compound was determined against OVCAR-3 cell lines of Ovarian cancer; type: functional; details: Homo sapiens
OVCAR-8 = test: In vitro growth inhibition of compound was determined against OVCAR-8 cell lines of Ovarian cancer; type: functional; details: Homo sapiens
OVCAR-4 = test: In vitro growth inhibition of compound was determined against OVCAR-4 cell lines of Ovarian cancer; type: functional; details: Homo sapiens
RXF 393 = test: In vitro growth inhibition of compound was determined against RXF393 cell lines of Renal cancer; type: functional; details: Homo sapiens
RPMI-8226 = test: In vitro growth inhibition of compound was determined against RPMI-8226 cell lines of Leukemia; type: functional; details: Homo sapiens
SF-268 = test: In vitro growth inhibition of compound was determined against SF-268 cell lines of CNS cancer; type: functional; details: Homo sapiens
SW-620 = test: In vitro growth inhibition of compound was determined against SW-620 cell lines of colon cancer; type: functional; details: Homo sapiens
SR = test: In vitro growth inhibition of compound was determined against SR cell lines of Leukemia; type: functional; details: Homo sapiens
SN12C = test: In vitro growth inhibition of compound was determined against SN12C cell lines of Renal cancer; type: functional; details: Homo sapiens
SF-295 = test: In vitro growth inhibition of compound was determined against SF-295 cell lines of CNS cancer; type: functional; details: Homo sapiens
SNB-75 = test: In vitro growth inhibition of compound was determined against SNB-75 cell lines of CNS cancer; type: functional; details: Homo sapiens
SK-MEL-28 = test: In vitro growth inhibition of compound was determined against SK-MEL-28 cell lines of Melanoma; type: functional; details: Homo sapiens
SK-MEL-5 = test: In vitro growth inhibition of compound was determined against SK-MEL-5 cell lines of Melanoma; type: functional; details: Homo sapiens
TK-10 = test: In vitro growth inhibition of compound was determined against TK-10 cell lines of Renal cancer; type: functional; details: Homo sapiens
UACC-257 = test: In vitro growth inhibition of compound was determined against UACC-257 cell lines of Melanoma; type: functional; details: Homo sapiens
UO-31 = test: In vitro growth inhibition of compound was determined against UO-31 cell lines of Renal cancer; type: functional; details: Homo sapiens
U-251 = test: In vitro growth inhibition of compound was determined against U251 cell lines of CNS cancer; type: functional; details: Homo sapiens
ACHN = test: In vitro growth inhibition of compound was determined against ACHN cell lines of Renal cancer; type: functional; details: Homo sapiens
HOP-62 = test: In vitro growth inhibition of compound was determined against HOP-62 cell lines of non-small cell lung cancer; type: functional; details: Homo sapiens
HT-29 = test: In vitro growth inhibition of compound was determined against HT-29 cell lines of colon cancer; type: functional; details: Homo sapiens
SF-539 = test: In vitro growth inhibition of compound was determined against SF-539 cell lines of CNS cancer; type: functional; details: Homo sapiens

For NS(=O)(=O)c1ccc(CCNSC(=S)N2CCOCC2)cc1, the pKi (Carbonic anhydrase 2) was 7.46.
With CCN(CC)C(=S)SS(=O)(=O)c1ccc(NC(C)=O)cc1 the GI50 (A549) was 0.2 µM, the GI50 (786-0) was 17 µM and the GI50 (BT-549) was 61 µM. The GI50 (COLO 205) was 22 µM, the GI50 (CCRF-CEM) was 20 µM and the GI50 (CAKI-1) was 16 µM. The GI50 (DU-145) was 23 µM, the GI50 (HCT-15) was 28 µM and the GI50 (HOP-92) was 16 µM. The GI50 (HL-60) was 24 µM, the GI50 (HCT-116) was 15 µM and the GI50 (HCC 2998) was 27 µM. It also gave a GI50 (Hs-578T) of 60 µM, a GI50 (IGROV-1) of 12 µM and a GI50 (K562) of 69 µM. It also gave a GI50 (KM12) of 13 µM, a GI50 (MOLT-4) of 48 µM and a GI50 (LOX IMVI) of 14 µM. For the same compound, the GI50 (MDA-MB-435) was 19 µM, the GI50 (MDA-MB-231) was 20 µM and the GI50 (MDA-N) was 21 µM. The GI50 (M14) was 15 µM, the GI50 (Malme-3M) was 16 µM and the GI50 (MCF7) was 18 µM. The GI50 (NCI-H522) was under 0.01 µM, the GI50 (NCI-H226) was 35 µM and the GI50 (NCI/ADR-RES) was 27 µM. The GI50 (OVCAR-3) was 31 µM, the GI50 (OVCAR-8) was 15 µM and the GI50 (OVCAR-4) was 22 µM. For the same compound, the GI50 (RXF 393) was 11 µM, the GI50 (RPMI-8226) was 18 µM and the GI50 (SF-268) was 44 µM. For the same compound, the GI50 (SW-620) was 16 µM, the GI50 (SR) was 0.01 µM and the GI50 (SN12C) was 18 µM. The GI50 (SF-295) was 28 µM, the GI50 (SNB-75) was 32 µM and the GI50 (SK-MEL-28) was 15 µM. For the same compound, the GI50 (SK-MEL-5) was 0.4 µM, the GI50 (TK-10) was 48 µM and the GI50 (UACC-257) was 9 µM. It also gave a GI50 (UO-31) of 20 µM, a GI50 (U-251) of 15 µM and a GI50 (ACHN) of 27 µM. The GI50 (HOP-62) was 18 µM.
For CCN(CC)C(=S)SS(=O)(=O)c1ccc([N+](=O)[O-])cc1, the GI50 (A549) was 1 µM, the GI50 (786-0) was 16 µM and the GI50 (BT-549) was 36 µM. For the same compound, the GI50 (COLO 205) was 19 µM, the GI50 (CAKI-1) was 18 µM and the GI50 (DU-145) was 27 µM. It also gave a GI50 (HCT-15) of 52 µM, a GI50 (HOP-92) of 4 µM and a GI50 (HCT-116) of 5 µM. It also gave a GI50 (HT-29) of 22 µM, a GI50 (HCC 2998) of 94 µM and a GI50 (Hs-578T) of over 100 µM. It also gave a GI50 (K562) of 19 µM, a GI50 (KM12) of 11 µM and a GI50 (LOX IMVI) of 17 µM. For the same compound, the GI50 (MDA-MB-435) was 23 µM, the GI50 (MDA-MB-231) was 26 µM and the GI50 (MDA-N) was 30 µM. The GI50 (M14) was 15 µM, the GI50 (Malme-3M) was 14 µM and the GI50 (MCF7) was 6 µM. For the same compound, the GI50 (NCI-H522) was 0.02 µM, the GI50 (NCI-H226) was 83 µM and the GI50 (NCI/ADR-RES) was 48 µM. For the same compound, the GI50 (OVCAR-3) was 35 µM, the GI50 (OVCAR-8) was 20 µM and the GI50 (OVCAR-4) was 45 µM. The GI50 (RXF 393) was 16 µM, the GI50 (RPMI-8226) was 12 µM and the GI50 (SF-268) was over 100 µM. It also gave a GI50 (SW-620) of 18 µM, a GI50 (SF-539) of 20 µM and a GI50 (SR) of 0.1 µM. The GI50 (SN12C) was 27 µM, the GI50 (SF-295) was 59 µM and the GI50 (SNB-75) was 77 µM. It also gave a GI50 (SK-MEL-28) of 19 µM, a GI50 (SK-MEL-5) of 2 µM and a GI50 (TK-10) of 43 µM. The GI50 (UACC-257) was 24 µM, the GI50 (UO-31) was 21 µM and the GI50 (U-251) was 14 µM. It also gave a GI50 (ACHN) of 36 µM and a GI50 (HOP-62) of 32 µM.
